Results: patent US10351575B2, “Bicyclic urea, thiourea, guanidine and cyanoguanidine compounds useful for the treatment of pain” (Array BioPharma Inc., priority 2012, dated 2019)

Target: Pim-1 (Homo sapiens (Human), UniProt P11309)
Assay: KinaseProfiler off-target kinase profiling
Type: biochemical
Details: 10 μM, ATP near Km
In short: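 Duplicate single-dose screen (10 μM). ATP concentration approximates Km for the individual kinase. Values = average POC.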

Chain of Pim-1 (P11309 whole entry): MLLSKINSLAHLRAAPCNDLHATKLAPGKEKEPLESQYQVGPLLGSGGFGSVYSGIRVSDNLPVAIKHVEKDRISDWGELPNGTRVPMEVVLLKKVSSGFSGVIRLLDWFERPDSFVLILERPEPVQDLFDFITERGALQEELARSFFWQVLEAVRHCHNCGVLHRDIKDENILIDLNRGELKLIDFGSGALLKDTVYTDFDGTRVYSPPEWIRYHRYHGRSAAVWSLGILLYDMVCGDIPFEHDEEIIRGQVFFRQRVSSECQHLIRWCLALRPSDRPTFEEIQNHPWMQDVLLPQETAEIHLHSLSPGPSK

| Avg. POC [POC] | Compound |
| --- | --- |
| 173 | Cc1c(-c2cnn(C)c2)nn(-c2ccccc2)c1NC(=O)N[C@H]1CCCc2ccccc21 [Example 2, (S)-1-(1′,4-dimethyl-1-phenyl-1H,1′H-3,4′-bipyrazol-5-yl)-3-(1,2,3,4-tetrahydronaphthalen-1-yl)urea] |
| 106 | Cc1c(-c2cnn(C)c2)nn(-c2ccccc2)c1NC(=O)NC1CCOc2cc(F)ccc21 (stereo not shown) [Example 12, 1-(1′,4-dimethyl-1-phenyl-1H,1′H-[3,4′-bipyrazol]-5-yl)-3-(7-fluorochroman-4-yl)urea] |
| 97.5 | Cc1c(-c2ccc(=O)n(C)c2)nn(-c2ccccc2)c1NC(=O)NC1CN(CC(F)(F)F)Cc2ccccc21 (stereo not shown) [Example 26, 1-(4-methyl-3-(1-methyl-6-oxo-1,6-dihydropyridin-3-yl)-1-phenyl-1H-pyrazol-5-yl)-3-(2-(2,2,2-trifluoroethyl)-1,2,3,4-tetrahydroisoquinolin-4-yl)urea] |
| 109 | COCc1ccc2c(c1)C(NC(=O)Nc1c(C)c(-c3cnn(C)c3)nn1-c1ccccc1)COC2 (stereo not shown) [Example 32, 1-(1′,4-dimethyl-1-phenyl-1H,1′H-[3,4′-bipyrazol]-5-yl)-3-(6-(methoxymethyl)isochroman-4-yl)urea] |
